Experimental data published in article PMC9967085, “Properly Substituted Benzimidazoles as a New Promising Class of Nicotinate Phosphoribosyltransferase (NAPRT) Modulators” (Pharmaceuticals, 2023).
Where two headings read alike, the source gives them in different places.

Columns and labels:
NAPRT [1] = system: NAPRT; set-up: method as in PMID 35890155; conditions: cited from earlier work
Human recombinant NAPRT = target: T1, Human recombinant NAPRT (Homo sapiens, UniProt Q6XQN6); assay: HPLC-based NAPRT activity screening assay; type: biochemical
T1 construct: made in house
T1 sequence (Q6XQN6 1-538): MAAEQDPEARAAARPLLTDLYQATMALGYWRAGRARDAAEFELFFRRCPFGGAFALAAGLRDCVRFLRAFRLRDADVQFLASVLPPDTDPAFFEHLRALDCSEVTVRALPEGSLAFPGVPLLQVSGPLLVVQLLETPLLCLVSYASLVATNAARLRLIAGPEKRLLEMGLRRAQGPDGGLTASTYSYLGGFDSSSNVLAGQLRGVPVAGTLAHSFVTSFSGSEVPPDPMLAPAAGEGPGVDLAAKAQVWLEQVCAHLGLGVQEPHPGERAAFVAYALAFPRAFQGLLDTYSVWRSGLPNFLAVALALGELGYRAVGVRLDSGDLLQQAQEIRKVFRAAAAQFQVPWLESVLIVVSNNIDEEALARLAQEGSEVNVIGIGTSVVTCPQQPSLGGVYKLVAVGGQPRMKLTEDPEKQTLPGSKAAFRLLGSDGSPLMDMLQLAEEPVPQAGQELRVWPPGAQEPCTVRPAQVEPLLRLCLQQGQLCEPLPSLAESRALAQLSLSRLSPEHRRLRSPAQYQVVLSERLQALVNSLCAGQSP

NAPRT [2] = target: NAPRT; set-up: method as in PMID 35890147; conditions: cited from earlier work
NAPRT [3] = target: NAPRT; set-up: method as in PMID 4333776; conditions: cited from earlier work
NAPRT [4] = target: NAPRT; set-up: method as in PMID 4255930; conditions: cited from earlier work
[5] = 1 mM compound, 0.2 mM NA, 0.4 mM PRPP
[6] = 1 mM compound, 0.2 mM NA, 0.4 mM PRPP, read-out: % Inhibition
[7] = 1 mM compound, 0.2 mM NA, 0.4 mM PRPP, read-out: % Inhibition (not active class)

-Fold Stimulation (Human recombinant NAPRT; [5]) [fold] | inhibition at 1000 µM (Human recombinant NAPRT; [6]) [%] | inhibition at 1000 µM (Human recombinant NAPRT; [7]) [%] | Compound | -Fold Stimulation (not active class) (Human recombinant NAPRT; [5]) | also measured
1.47 ± 0.07 | – | – | N-(3-(((1,2-dimethyl-1H-benzo[d]imidazol-5-yl)amino)methyl)benzyl)acetamide [Compound 32] | – | Effect on NAPRT catalytic activity (in words) (Human recombinant NAPRT): NAPRT activators; % Inhibition (not active class) (Human recombinant NAPRT; [5]): - (Not active, it is referred to compounds showing less than 10% inhibition or less than 1.10-fold stimulation)
– | 30 | – | CC(=O)NCc1cccc(CNc2ccc3c(c2)nc(C)n3C)c1 [Compound 17, N-(3-(((1,2-dimethyl-1H-benzo[d]imidazol-5-yl)amino)methyl)benzyl)acetamide] | -^b (Not active, it is referred to compounds showing less than 10% inhibition or less than 1.10-fold stimulation) | % Inhibition (Human recombinant NAPRT; [5]): 30.3 ± 6.0%
1.14 ± 0.05 | – | < 10 | Cc1nc2cc(N(C)Cc3cccc(CN)c3)ccc2n1C [Compound 23, N-(3-(aminomethyl)benzyl)-N,1,2-trimethyl-1H-benzo[d]imidazol-5-amine] | – | Effect on NAPRT catalytic activity (in words) (Human recombinant NAPRT): NAPRT activators
– | 13 ± 3.1 | – | CC(=O)NCc1ccc(CNc2ccc3c(c2)nc(C)n3C)cc1 [Compound 25, N-(4-(((1,2-dimethyl-1H-benzo[d]imidazol-5-yl)amino)methyl)benzyl)acetamide] | - (Not active, it is referred to compounds showing less than 10% inhibition or less than 1.10-fold stimulation) | Effect on NAPRT catalytic activity (in words) (Human recombinant NAPRT): inhibit NAPRT activity
– | 0.6 ± 0.9 | < 10 | Cc1nc2cc(NCc3cccc(CN)c3)ccc2n1C [Compound 19, N-(3-(aminomethyl)benzyl)-1,2-dimethyl-1H-benzo[d]imidazol-5-amine] | - (Not active, it is referred to compounds showing less than 10% inhibition or less than 1.10-fold stimulation) | Effect on NAPRT catalytic activity (in words) (Human recombinant NAPRT): inactive
– | 5 ± 1.2 | < 10 | CC(=O)Nc1cccc(CN(C)c2ccc3c(c2)nc(C)n3C)c1 [Compound 22, N-(3-(((1,2-dimethyl-1H-benzo[d]imidazol-5-yl)(methyl)amino)methyl)phenyl) acetamide] | - (Not active, it is referred to compounds showing less than 10% inhibition or less than 1.10-fold stimulation) | –
– | 1.3 | < 10 | CC(=O)Nc1ccc(CNc2ccc3c(c2)nc(C)n3C)cc1 [Compound 26, N-(4-(((1,2-dimethyl-1H-benzo[d]imidazol-5-yl)amino)methyl)phenyl)acetamide] | - (Not active, it is referred to compounds showing less than 10% inhibition or less than 1.10-fold stimulation) | –
0 | 0 | < 10 | CC(=O)NCc1cccc(CN(C)c2ccc3c(c2)nc(C)n3C)c1 [Compound 21, N-(3-(((1,2-dimethyl-1H-benzo[d]imidazol-5-yl)(methyl)amino)methyl)benzyl) acetamide] | - (Not active, it is referred to compounds showing less than 10% inhibition or less than 1.10-fold stimulation) | –
1.25 ± 0.05 | – | < 10 | Cc1nc2cc(NCc3cccc(N)c3)ccc2n1C [Compound 20, N-(3-aminobenzyl)-1,2-dimethyl-1H-benzo[d]imidazol-5-amine] | – | Effect on NAPRT catalytic activity (in words) (Human recombinant NAPRT): NAPRT activators

Second part, the compound before the results:

Compound | -Fold Stimulation (Human recombinant NAPRT; [5]) [fold] | inhibition at 1000 µM (Human recombinant NAPRT; [6]) [%] | inhibition at 1000 µM (Human recombinant NAPRT; [7]) [%] | -Fold Stimulation (not active class) (Human recombinant NAPRT; [5]) | also measured
O=C(Cn1c(=O)sc2ccccc21)Nc1cccc(C(=O)O)c1 [Compound 11] | – | – | – | – | IC50 (NAPRT [1]): 232 µM
O=C(O)c1cnsn1 [Compound 16] | – | – | – | – | Ki (NAPRT [2]): 295 µM
O=C(NC(Sc1ccncn1)C(=O)c1ccccc1)c1ccccc1 (stereo not drawn) [Compound 14] | – | – | – | – | Ki (NAPRT [2]): 89 µM
CC(C)(C)C(=O)OCCCn1cc(CCCN2C[C@@H](O)[C@@H](O)[C@@H]2Cn2cc(-c3ccccc3)nn2)nn1 [Compound 9] | – | – | – | – | IC50 (NAPRT [1]): 242 µM
Cc1nc2cc(N(C)Cc3ccc(CN)cc3)ccc2n1C [Compound 31, N-(4-(aminomethyl)benzyl)-N,1,2-trimethyl-1H-benzo[d]imidazol-5-amine] | 1.58 ± 0.07 | – | < 10 | – | Effect on NAPRT catalytic activity (in words) (Human recombinant NAPRT): NAPRT activators
CC(Oc1ccccc1Cl)C(=O)Nc1cccc(C(=O)O)c1 (stereo not drawn) [Compound 12] | – | – | – | – | IC50 (NAPRT [1]): 265 µM
O=C(O)c1ccccc1Nc1cccc(C(F)(F)F)c1 [Compound 5, flufenamic acid] | – | – | – | – | Ki (NAPRT [3]): 46 µM
Cc1cccc(Nc2ccccc2C(=O)O)c1C [Compound 6, mefenamic acid] | – | – | – | – | Ki (NAPRT [3]): 76 µM
Cc1nc2cc(NCc3ccc(CN)cc3)ccc2n1C [Compound 27, N-(4-(aminomethyl)benzyl)-1,2-dimethyl-1H-benzo[d]imidazol-5-amine] | – | 1.9 ± 0.9 | < 10 | - (Not active, it is referred to compounds showing less than 10% inhibition or less than 1.10-fold stimulation) | –
O=C(O)c1ccccc1O [Compound 7, salicylic acid] | – | – | – | – | Ki (NAPRT [3]): 160 µM
Cc1nc2cc(N(C)Cc3cccc(N)c3)ccc2n1C [Compound 24, N-(3-aminobenzyl)-N,1,2-trimethyl-1H-benzo[d]imidazol-5-amine] | 1.44 ± 0.04 | – | < 10 | – | Effect on NAPRT catalytic activity (in words) (Human recombinant NAPRT): NAPRT activators
CC(C)(C)C(=O)OCCCn1cc(CCCN2C[C@@H](O)[C@@H](O)[C@@H]2NC(=O)c2ccccc2)nn1 [Compound 8] | – | – | – | – | IC50 (NAPRT [1]): 327 µM
CCCCC1C(=O)N(c2ccccc2)N(c2ccccc2)C1=O [Compound 4, phenylbutazone] | – | – | – | – | Ki (NAPRT [3]): 160 µM
O=C(O)c1cnccc1O [Compound 15] | – | – | – | – | Ki (NAPRT [2]): 308 µM
O=C(N[C@@H](C(=O)c1ccccc1)n1cnccc1=O)c1ccccc1 [Compound 13] | – | – | – | – | Ki (NAPRT [2]): 2300 µM
NCc1cc2c(cc1Cl)OCO2 [Compound 10] | – | – | – | – | IC50 (NAPRT [1]): 160 µM
CC(=O)Nc1ccc(CN(C)c2ccc3c(c2)nc(C)n3C)cc1 [Compound 30, N-(4-(((1,2-dimethyl-1H-benzo[d]imidazol-5-yl)(methyl)amino)methyl)phenyl) acetamide] | 0 | 0 | < 10 | - (Not active, it is referred to compounds showing less than 10% inhibition or less than 1.10-fold stimulation) | –
N-(3-(((1,2-dimethyl-1H-benzo[d]imidazol-5-yl)(methyl)amino)methyl)benzyl) acetamide [Compound 33] | 1.08 ± 0.03 | – | – | - (Not active, it is referred to compounds showing less than 10% inhibition or less than 1.10-fold stimulation) | % Inhibition (not active class) (Human recombinant NAPRT; [5]): - (Not active, it is referred to compounds showing less than 10% inhibition or less than 1.10-fold stimulation)
CC(=O)NCc1ccc(CN(C)c2ccc3c(c2)nc(C)n3C)cc1 [Compound 29, N-(4-(((1,2-dimethyl-1H-benzo[d]imidazol-5-yl)(methyl)amino)methyl)benzyl) acetamide] | – | 12 ± 2.2 | – | - (Not active, it is referred to compounds showing less than 10% inhibition or less than 1.10-fold stimulation) | Effect on NAPRT catalytic activity (in words) (Human recombinant NAPRT): inhibit NAPRT activity
O=C(O)c1cccnc1F [Compound 2] | – | – | – | – | Ki (NAPRT [4]): 280 µM
Cc1nc2cc(NCc3ccc(N)cc3)ccc2n1C [Compound 28, N-(4-aminobenzyl)-1,2-dimethyl-1H-benzo[d]imidazol-5-amine] | 0 | 0 | < 10 | - (Not active, it is referred to compounds showing less than 10% inhibition or less than 1.10-fold stimulation) | –
